The subject of data set [1] is normal MCF-10A breast cells.
Experimental: (§1) The antiproliferative activity and cytotoxicity of DHA-5-methylisatin hybrids 6a–c and 7a–m against MCF-7, MDA-MB-231, MCF-7/ADR, and MDA-MB-231/ADR (Purchased from Procell) breast cancer cell lines as well as MCF-10A were assessed by 3-(4,5-dimethylthiazol-2-yl)-2,5-diphenyltetrazolium bromide (MTT) assay.
(§2) MCF-7, MDA-MB-231, MCF-7/ADR, and MDA-MB-231/ADR breast cancer cell lines (2 × 10^3) were plated in each well of a 96-well plate and were allowed to adhere and spread for 24 h. The dihydroartemisinin-5-methylisatin hybrids 6a–e and 7a–m were added to a final concentration of 100 µM, and the cells were cultured for 24 h at 37 °C. 3-(4,5-dimethyl-2-thiazolyl)-2,5-diphenyltetrazolium bromide (MTT) solution (10 µL) was added to each well, and the cultures were incubated for an additional 4 h. A further 100 µL of MTT solution was added and incubation continued overnight. The absorbance at 540 nm was determined in each well with a 96-well plate reader. The growth of the treated cells was compared with that of untreated cells.
For data set [2], the system named is MCF-7 breast cancer cell line. Description: MTT antiproliferative assay, MCF-7. The format is cell-based. To be noted: for IC50: MCF-7, MTT assay.
Experimental: as §1, §2
Data set [3] deals with MCF-7/ADR breast cancer cell line. Description: MTT antiproliferative assay, MCF-7/ADR. Conditions: MCF-7/ADR (drug-resistant). The format is cell-based. In general terms: Tetrazolium assays rely on reduction of a dye to a coloured formazan, in cell work by metabolically active cells.
Experimental: as §1, §2
The subject of data set [4] is MDA-MB-231 breast cancer cell line. Description: MTT antiproliferative assay, MDA-MB-231. The format is cell-based. To be noted: for IC50: MDA-MB-231, MTT assay.
Experimental: as §1, §2
Data set [5] concerns MDA-MB-231/ADR breast cancer cell line. Description: MTT antiproliferative assay, MDA-MB-231/ADR. Format: cell-based. To be noted: MDA-MB-231/ADR (drug-resistant).
Experimental: as §1, §2
The nature of data set [6]: MTT cytotoxicity assay, MCF-10A. Conditions: human, MCF-10A normal breast cells.
Experimental: as §1, §2
Data set [7] relates to MCF-7, MDA-MB-231, MCF-7/ADR, and MDA-MB-231/ADR breast cancer cell lines. Description: MTT antiproliferative assay, summary over the breast cancer cell line panel. To be noted: range over the four breast cancer cell lines; read-out: IC50 range across MCF-7, MDA-MB-231, MCF-7/ADR and MDA-MB-231/ADR. The format is cell-based.
Experimental: as §1, §2

Consider three compounds from article PMC9695041, “The Anti-Breast Cancer Activity of Dihydroartemisinin-5-methylisatin Hybrids Tethered via Different Carbon Spacers” (Molecules, 2022).

As for “3-((Benzyloxy)imino)-6-methyl-1-(3-(((3R,5aS,6R,8aS,9R,12R,12aR)-3,6,9-trimethyldecahydro-12H-3,12-epoxy[1,2]dioxepino[4,3-i]isochromen-10-yl)oxy)propyl)indolin-2-one [Hybrid 7l]”, the IC50 in data set [1], in data set [2], in data set [3], in data set [4] and in data set [5] was more than 100 µM throughout.

Turning to “3-(Methoxyimino)-1-(4-(((3R,5aS,6R,8aS,9R,12R,12aR)-3,6,9-trimethyldecahydro-12H-3,12-epoxy[1,2]dioxepino[4,3-i]isochromen-10-yl)oxy)butyl)indolin-2-one [Hybrid 7h]”, the IC50 in data set [1] is more than 100 µM; in data set [2] it was 85.2 µM; in data set [3] it was 77.5 µM; in data set [4], 73.9 µM; in data set [5], 80.3 µM.

In data set [6], `Cc1ccc2c(c1)C(=NO)C(=O)N2CCOC1O[C@@H]2O[C@@]3(C)CC[C@H]4[C@H](C)CC[C@@H]([C@H]1C)[C@@]24OO3` (stereo partly drawn) [Hybrid 7a, 3-(Hydroxyimino)-5-methyl-1-(2-(((3R,5aS,6R,8aS,9R,12R,12aR)-3,6,9-trimethyldecahydro-12H-3,12-epoxy[1,2]dioxepino[4,3-i]isochromen-10-yl)oxy)ethyl)indolin-2-one] gave an IC50 at 24 h of more than 100 µM. The IC50 in data set [2] (Homo sapiens, MCF7) is 19.4 µM; in data set [7], 15.3 to 20.1 µM; in data set [3] (Homo sapiens, NCI/ADR-RES) it was 20.1 µM; in data set [4] (Homo sapiens) it was 15.3 µM; in data set [5] (Homo sapiens), 18.8 µM. The “SI1: selectivity index IC50(MCF-10A)/IC50(MCF-7)” value in data set [2] (IC50(MCF-10A)/IC50(MCF-7)) is listed as more than 5.15. Further, the “SI2: selectivity index IC50(MCF-10A)/IC50(MDA-MB-231)” value in data set [4] (IC50(MCF-10A)/IC50(MDA-MB-231)) is on record as more than 6.53.
